Results published in the NIST ThermoML archive (doi:10.1016/j.jct.2017.01.016).
Numbers after ± are expanded uncertainties.

Columns and labels:
[1] = 101 kPa, Liquid; for viscosity: Capillary tube (Ostwald / Ubbelohde) method; for speed of sound: Frequency=3 MHz, Linear variable-path acoustic interferometer
[2] = xn = mol fraction of the nth substance listed; details: 101 kPa, Liquid; for viscosity: Capillary tube (Ostwald / Ubbelohde) method; for speed of sound: Frequency=3 MHz, Linear variable-path acoustic interferometer

Row | SMILES | viscosity ([1]; 293.15 K) [mPa·s] | speed of sound ([1]; 293.15 K) [m/s] | viscosity ([1]; 298.15 K) [mPa·s] | speed of sound ([1]; 298.15 K) [m/s] | viscosity ([1]; 303.15 K) [mPa·s] | speed of sound ([1]; 303.15 K) [m/s] | viscosity ([1]; 308.15 K) [mPa·s] | speed of sound ([1]; 308.15 K) [m/s] | viscosity ([1]; 313.15 K) [mPa·s] | speed of sound ([1]; 313.15 K) [m/s] | viscosity ([1]; 318.15 K) [mPa·s] | speed of sound ([1]; 318.15 K) [m/s] | viscosity ([2]; 293.15 K, x1 = 1) [mPa·s] | speed of sound ([2]; 293.15 K, x1 = 1) [m/s] | viscosity ([2]; 298.15 K, x1 = 1) [mPa·s] | speed of sound ([2]; 298.15 K, x1 = 1) [m/s] | viscosity ([2]; 303.15 K, x1 = 1) [mPa·s] | speed of sound ([2]; 303.15 K, x1 = 1) [m/s] | viscosity ([2]; 308.15 K, x1 = 1) [mPa·s] | speed of sound ([2]; 308.15 K, x1 = 1) [m/s] | other results
1 | C1COCCO1 [1,4-dioxane] | 1.306 ± 0.027 | 1367.2 ± 1.7 | 1.195 ± 0.025 | 1344.7 ± 1.7 | 1.096 ± 0.023 | 1323.1 ± 1.7 | 1.014 ± 0.021 | 1301.2 ± 1.7 | 0.945 ± 0.02 | 1279.7 ± 1.6 | 0.884 ± 0.018 | 1258.6 ± 1.6 |  |  |  |  |  |  |  |  | 
2 | Cc1cc(C)cc(C)c1 [1,3,5-trimethylbenzene] | 0.7056 ± 0.015 | 1360.4 ± 1.7 | 0.6592 ± 0.014 | 1339.8 ± 1.7 | 0.6188 ± 0.013 | 1319.6 ± 1.7 | 0.5792 ± 0.012 | 1300.2 ± 1.7 | 0.5422 ± 0.011 | 1280.4 ± 1.7 | 0.5066 ± 0.011 | 1263 ± 1.7 |  |  |  |  |  |  |  |  | 
3 | c1ccccc1 [benzene] | 0.647 ± 0.013 | 1324.4 ± 1.6 | 0.6048 ± 0.013 | 1299.5 ± 1.6 | 0.5672 ± 0.012 | 1275.7 ± 1.6 | 0.5322 ± 0.011 | 1252.4 ± 1.6 | 0.498 ± 0.01 | 1229.3 ± 1.6 | 0.4672 ± 0.0098 | 1207.8 ± 1.6 |  |  |  |  |  |  |  |  | 
4 | Cc1ccc(C)cc1 [1,4-dimethylbenzene] | 0.6505 ± 0.014 | 1328.4 ± 1.7 | 0.6115 ± 0.013 | 1307.4 ± 1.7 | 0.5766 ± 0.012 | 1287.3 ± 1.6 | 0.544 ± 0.011 | 1267.6 ± 1.6 | 0.5132 ± 0.011 | 1248.3 ± 1.6 | 0.4862 ± 0.01 | 1229.8 ± 1.6 |  |  |  |  |  |  |  |  | 
5 | C1COCCO1 [1,4-dioxane] + Cc1ccccc1C |  |  |  |  |  |  |  |  |  |  |  |  | 1.306 ± 0.027 | 1367.2 ± 1.7 | 1.195 ± 0.025 | 1344.7 ± 1.7 | 1.096 ± 0.023 | 1323.1 ± 1.7 | 1.014 ± 0.021 | 1301.2 ± 1.7 | viscosity ([2]; 313.15 K, x1 = 1): 0.945 ± 0.02 mPa·s; speed of sound ([2]; 313.15 K, x1 = 1): 1279.7 ± 1.6 m/s; viscosity ([2]; 318.15 K, x1 = 1): 0.884 ± 0.018 mPa·s; speed of sound ([2]; 318.15 K, x1 = 1): 1258.6 ± 1.6 m/s
6 | c1ccccc1 [benzene] + C1COCCO1 |  |  |  |  |  |  |  |  |  |  |  |  |  |  |  |  |  |  |  |  | viscosity ([2]; 293.15 K, x2 = 0): 0.647 ± 0.013 mPa·s; speed of sound ([2]; 293.15 K, x2 = 0): 1324.4 ± 1.6 m/s; viscosity ([2]; 298.15 K, x2 = 0): 0.6048 ± 0.013 mPa·s; speed of sound ([2]; 298.15 K, x2 = 0): 1299.5 ± 1.6 m/s; viscosity ([2]; 303.15 K, x2 = 0): 0.5672 ± 0.012 mPa·s; speed of sound ([2]; 303.15 K, x2 = 0): 1275.7 ± 1.6 m/s; viscosity ([2]; 308.15 K, x2 = 0): 0.5322 ± 0.011 mPa·s; speed of sound ([2]; 308.15 K, x2 = 0): 1252.4 ± 1.6 m/s; viscosity ([2]; 313.15 K, x2 = 0): 0.498 ± 0.01 mPa·s; speed of sound ([2]; 313.15 K, x2 = 0): 1229.3 ± 1.6 m/s; viscosity ([2]; 318.15 K, x2 = 0): 0.4672 ± 0.0098 mPa·s; speed of sound ([2]; 318.15 K, x2 = 0): 1207.8 ± 1.6 m/s
7 | C1COCCO1 [1,4-dioxane] + Cc1cccc(C)c1 |  |  |  |  |  |  |  |  |  |  |  |  | 1.306 ± 0.027 | 1367.2 ± 1.7 | 1.195 ± 0.025 | 1344.7 ± 1.7 | 1.096 ± 0.023 | 1323.1 ± 1.7 | 1.014 ± 0.021 | 1301.2 ± 1.7 | viscosity ([2]; 313.15 K, x1 = 1): 0.945 ± 0.02 mPa·s; speed of sound ([2]; 313.15 K, x1 = 1): 1279.7 ± 1.6 m/s; viscosity ([2]; 318.15 K, x1 = 1): 0.884 ± 0.018 mPa·s; speed of sound ([2]; 318.15 K, x1 = 1): 1258.6 ± 1.6 m/s
8 | C1COCCO1 [1,4-dioxane] + Cc1ccc(C)cc1 |  |  |  |  |  |  |  |  |  |  |  |  | 1.306 ± 0.027 | 1367.2 ± 1.7 | 1.195 ± 0.025 | 1344.7 ± 1.7 | 1.096 ± 0.023 | 1323.1 ± 1.7 | 1.014 ± 0.021 | 1301.2 ± 1.7 | viscosity ([2]; 313.15 K, x1 = 1): 0.945 ± 0.02 mPa·s; speed of sound ([2]; 313.15 K, x1 = 1): 1279.7 ± 1.6 m/s; viscosity ([2]; 318.15 K, x1 = 1): 0.884 ± 0.018 mPa·s; speed of sound ([2]; 318.15 K, x1 = 1): 1258.6 ± 1.6 m/s
9 | Cc1ccccc1C [1,2-dimethylbenzene] | 0.8066 ± 0.017 | 1367.7 ± 1.7 | 0.7576 ± 0.016 | 1347.5 ± 1.7 | 0.7132 ± 0.015 | 1329.4 ± 1.7 | 0.669 ± 0.014 | 1313.3 ± 1.7 | 0.6315 ± 0.013 | 1298.5 ± 1.6 | 0.5972 ± 0.013 | 1285.2 ± 1.6 |  |  |  |  |  |  |  |  | 
10 | Cc1ccccc1 [toluene] | 0.5885 ± 0.012 | 1328.6 ± 1.6 | 0.5541 ± 0.012 | 1307.3 ± 1.6 | 0.5232 ± 0.011 | 1285.5 ± 1.6 | 0.495 ± 0.01 | 1264.2 ± 1.6 | 0.4662 ± 0.0098 | 1242.4 ± 1.6 | 0.4384 ± 0.0092 | 1220.7 ± 1.6 |  |  |  |  |  |  |  |  | 
11 | Cc1cccc(C)c1 [1,3-dimethylbenzene] | 0.6184 ± 0.013 | 1346.7 ± 1.7 | 0.584 ± 0.012 | 1323.6 ± 1.7 | 0.5517 ± 0.012 | 1302.4 ± 1.7 | 0.5229 ± 0.011 | 1282.3 ± 1.6 | 0.4938 ± 0.01 | 1262.3 ± 1.6 | 0.468 ± 0.0099 | 1243 ± 1.6 |  |  |  |  |  |  |  |  | 
12 | Cc1ccccc1 [toluene] + C1COCCO1 |  |  |  |  |  |  |  |  |  |  |  |  |  |  |  |  |  |  |  |  | viscosity ([2]; 293.15 K, x2 = 0): 0.5885 ± 0.012 mPa·s; speed of sound ([2]; 293.15 K, x2 = 0): 1328.6 ± 1.6 m/s; viscosity ([2]; 298.15 K, x2 = 0): 0.5541 ± 0.012 mPa·s; speed of sound ([2]; 298.15 K, x2 = 0): 1307.3 ± 1.6 m/s; viscosity ([2]; 303.15 K, x2 = 0): 0.5232 ± 0.011 mPa·s; speed of sound ([2]; 303.15 K, x2 = 0): 1285.5 ± 1.6 m/s; viscosity ([2]; 308.15 K, x2 = 0): 0.495 ± 0.01 mPa·s; speed of sound ([2]; 308.15 K, x2 = 0): 1264.2 ± 1.6 m/s; viscosity ([2]; 313.15 K, x2 = 0): 0.4662 ± 0.0098 mPa·s; speed of sound ([2]; 313.15 K, x2 = 0): 1242.4 ± 1.6 m/s; viscosity ([2]; 318.15 K, x2 = 0): 0.4384 ± 0.0092 mPa·s; speed of sound ([2]; 318.15 K, x2 = 0): 1220.7 ± 1.6 m/s
13 | C1COCCO1 [1,4-dioxane] + Cc1cc(C)cc(C)c1 |  |  |  |  |  |  |  |  |  |  |  |  | 1.306 ± 0.027 | 1367.2 ± 1.7 | 1.195 ± 0.025 | 1344.7 ± 1.7 | 1.096 ± 0.023 | 1323.1 ± 1.7 | 1.014 ± 0.021 | 1301.2 ± 1.7 | viscosity ([2]; 313.15 K, x1 = 1): 0.945 ± 0.02 mPa·s; speed of sound ([2]; 313.15 K, x1 = 1): 1279.7 ± 1.6 m/s; viscosity ([2]; 318.15 K, x1 = 1): 0.884 ± 0.018 mPa·s; speed of sound ([2]; 318.15 K, x1 = 1): 1258.6 ± 1.6 m/s
